Source: US8324267B2, “Kinase inhibitors and the use thereof” (Forschungzentrum Karlsruhe GmbH, priority 2001, dated 2012)

What was measured:
ErbB2 = ErbB2 (Homo sapiens, UniProt P04626); assay: In vitro tyrosine kinase assay (ELISA, GST kinase, polyGlu,Tyr 4:1 acceptor); type: biochemical; conditions: read-out: inhibition (−) or stimulation (+) of kinase activity relative to the control; for inhibition at 1 µg/mL: inhibitor 1 μg/ml; for inhibition at 10 µg/mL: inhibitor 10 μg/ml
Experimental: (§1) The inhibition of various receptor tyrosine kinases in vitro by MAE87, MAE106 and MAZ51 was investigated. The inhibitors were investigated in 2 different concentrations (1 μg/ml and 10 μg/ml). The inhibition is stated in %. “+”=stimulation of kinase activity relative to the control,
(§2) “−”=inhibition of kinase activity relative to the control.
(§3) The activity of the RTK inhibitors were determined with the aid of an ELISA. In this assay, the corresponding kinases were employed as recombinant GST fusion proteins (glutathione S-transferase). Synthetic polyGlu, Tyr 4:1 is used as acceptor. The ability of different concentrations of the test substances to inhibit the RTK-mediated phosphorylation of the abovementioned acceptor was assessed. All the tests were carried out in duplicate.
(§4) ELISA plates were coated with 0.2 mg/ml of polyGlu, Tyr 4:1 in 100 mM bicarbonate buffer (pH 9.6) overnight. This solution was removed and the microtiter plates were washed twice with TBS buffer (10 mM Tris-HCl, pH 8.1, 100 mM NaCl) and then blocked with 5% BSA/TBS for 30 min. 50 μl of test substance (2 or 20 μg/ml in 10% DMSO), 25 μl of GST kinase in 4× kinase buffer (200 mM HEPES, 100 mM NaCl, 80 μM Na3VO4 and 0.04% BSA) were introduced. The reaction was started by adding 25 μl of 160 μM ATP (in 40 mM MnCl2) as substrate of the kinases. The final concentrations of the test compounds is thus 1 or 10 μg/ml in 5% DMSO. The GST fusion proteins were employed in the following concentrations. VEGFR-2 50 NG/well, VEGFR-3 300 ng/well, Tie2 300 ng/well, EGFR 50 ng/well, ErbB2 200 ng/well, IGF-1R 50 ng/well, FGFR1 200 ng/well. The reaction mixture was incubated at 30° C. for 90 min. The kinase reaction was stopped by adding 50 μl of 30 mM EDTA/well. The microtiter plates were washed twice with 0.05% Tween20/TBS. Anti-phosphotyrosine antibody (1:500) was added in 0.05% Tween20/TBS (with 0.5% BSA, 0.025% skimmed milk powder and 100 μM Na3VO4) and incubated at 37° C. for 1 h. The microtiter plates were washed three times with 0.05% Tween20/TBS. The HRP-conjugated detection autibody (1:1000) was added in 0.05% Tween20/TBS (with 0.5% BSA, 0.025% skimmed milk powder and 100 μM Na3VO4) and incubated at 37° C. for 1 h. The microtiter plates were washed three times with 0.05% Tween20/TBS. ABTS (2,2′-azino-di-(3-ethylbenz-thiazoline-6-sulfonate)) substrate (Roche Diagnostics GmbH, Mannheim) was added. The OD was determined at 405 nm using an ELISA reader.

FGFR1 = FGFR1 (Homo sapiens, UniProt P11362); assay: as above; type: biochemical; conditions: read-out: inhibition (−) or stimulation (+) of kinase activity relative to the control; for inhibition at 1 µg/mL: inhibitor 1 μg/ml; for inhibition at 10 µg/mL: inhibitor 10 μg/ml
Sequence of FGFR1 (P11362 22-822): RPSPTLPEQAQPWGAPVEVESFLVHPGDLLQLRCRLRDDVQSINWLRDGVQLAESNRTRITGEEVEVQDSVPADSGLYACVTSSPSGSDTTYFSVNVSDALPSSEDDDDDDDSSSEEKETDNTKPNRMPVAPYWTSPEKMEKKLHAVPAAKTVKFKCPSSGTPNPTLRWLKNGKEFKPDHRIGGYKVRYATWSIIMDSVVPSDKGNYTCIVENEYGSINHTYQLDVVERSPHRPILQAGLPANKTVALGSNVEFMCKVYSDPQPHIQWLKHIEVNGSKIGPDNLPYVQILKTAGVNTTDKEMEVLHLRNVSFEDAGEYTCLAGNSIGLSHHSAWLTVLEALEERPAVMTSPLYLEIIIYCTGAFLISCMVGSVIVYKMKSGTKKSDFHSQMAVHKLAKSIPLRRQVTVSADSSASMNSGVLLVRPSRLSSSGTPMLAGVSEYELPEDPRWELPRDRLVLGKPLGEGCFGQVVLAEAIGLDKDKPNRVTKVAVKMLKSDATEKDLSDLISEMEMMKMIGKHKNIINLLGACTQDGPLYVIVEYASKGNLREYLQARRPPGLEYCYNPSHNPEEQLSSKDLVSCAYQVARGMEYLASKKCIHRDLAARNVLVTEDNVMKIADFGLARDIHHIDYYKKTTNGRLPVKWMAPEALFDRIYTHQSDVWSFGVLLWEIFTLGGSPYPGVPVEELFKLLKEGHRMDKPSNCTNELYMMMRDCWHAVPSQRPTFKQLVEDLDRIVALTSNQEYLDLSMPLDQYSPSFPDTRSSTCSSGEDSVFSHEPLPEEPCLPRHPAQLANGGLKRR
Experimental: as §1, §2, §3, §4

Tie2 = Tie2 (Homo sapiens, UniProt Q02763); assay: as above; type: biochemical; conditions: read-out: inhibition (−) or stimulation (+) of kinase activity relative to the control; for inhibition at 1 µg/mL: inhibitor 1 μg/ml; for inhibition at 10 µg/mL: inhibitor 10 μg/ml
Sequence of Tie2 (Q02763 23-1124): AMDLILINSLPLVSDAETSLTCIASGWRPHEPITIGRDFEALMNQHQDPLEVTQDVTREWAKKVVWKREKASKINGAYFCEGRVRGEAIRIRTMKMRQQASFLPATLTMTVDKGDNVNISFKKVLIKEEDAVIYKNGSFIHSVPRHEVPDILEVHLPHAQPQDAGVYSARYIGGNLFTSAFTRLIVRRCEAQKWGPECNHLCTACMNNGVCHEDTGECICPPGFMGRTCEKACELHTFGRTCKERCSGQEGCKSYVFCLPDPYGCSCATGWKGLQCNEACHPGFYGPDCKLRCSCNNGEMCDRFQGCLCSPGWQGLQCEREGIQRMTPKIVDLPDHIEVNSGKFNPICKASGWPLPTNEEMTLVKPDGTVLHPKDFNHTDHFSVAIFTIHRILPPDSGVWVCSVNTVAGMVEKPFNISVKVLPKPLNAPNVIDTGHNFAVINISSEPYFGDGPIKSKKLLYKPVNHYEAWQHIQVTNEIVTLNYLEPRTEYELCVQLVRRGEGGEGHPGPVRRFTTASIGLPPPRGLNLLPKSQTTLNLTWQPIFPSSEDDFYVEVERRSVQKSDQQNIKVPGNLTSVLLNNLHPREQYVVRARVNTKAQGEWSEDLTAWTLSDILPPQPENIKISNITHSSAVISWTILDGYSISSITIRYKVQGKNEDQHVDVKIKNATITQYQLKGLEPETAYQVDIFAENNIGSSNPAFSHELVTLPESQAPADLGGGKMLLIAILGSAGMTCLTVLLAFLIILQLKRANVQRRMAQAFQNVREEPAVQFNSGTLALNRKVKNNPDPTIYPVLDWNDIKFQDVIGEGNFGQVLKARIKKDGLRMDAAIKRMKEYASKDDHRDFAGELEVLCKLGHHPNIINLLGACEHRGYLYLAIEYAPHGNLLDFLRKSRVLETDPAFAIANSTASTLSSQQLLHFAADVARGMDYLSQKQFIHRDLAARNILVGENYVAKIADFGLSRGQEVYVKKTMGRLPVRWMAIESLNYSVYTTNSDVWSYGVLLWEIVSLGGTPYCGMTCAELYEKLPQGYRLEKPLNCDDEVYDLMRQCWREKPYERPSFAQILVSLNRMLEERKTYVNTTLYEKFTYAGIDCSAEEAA
Experimental: as §1, §2, §3, §4

VEGFR-2 = VEGFR-2 (Homo sapiens, UniProt P35968); assay: as above; type: biochemical; conditions: read-out: inhibition (−) or stimulation (+) of kinase activity relative to the control; for inhibition at 1 µg/mL: inhibitor 1 μg/ml; for inhibition at 10 µg/mL: inhibitor 10 μg/ml
Sequence of VEGFR-2 (P35968 20-1356): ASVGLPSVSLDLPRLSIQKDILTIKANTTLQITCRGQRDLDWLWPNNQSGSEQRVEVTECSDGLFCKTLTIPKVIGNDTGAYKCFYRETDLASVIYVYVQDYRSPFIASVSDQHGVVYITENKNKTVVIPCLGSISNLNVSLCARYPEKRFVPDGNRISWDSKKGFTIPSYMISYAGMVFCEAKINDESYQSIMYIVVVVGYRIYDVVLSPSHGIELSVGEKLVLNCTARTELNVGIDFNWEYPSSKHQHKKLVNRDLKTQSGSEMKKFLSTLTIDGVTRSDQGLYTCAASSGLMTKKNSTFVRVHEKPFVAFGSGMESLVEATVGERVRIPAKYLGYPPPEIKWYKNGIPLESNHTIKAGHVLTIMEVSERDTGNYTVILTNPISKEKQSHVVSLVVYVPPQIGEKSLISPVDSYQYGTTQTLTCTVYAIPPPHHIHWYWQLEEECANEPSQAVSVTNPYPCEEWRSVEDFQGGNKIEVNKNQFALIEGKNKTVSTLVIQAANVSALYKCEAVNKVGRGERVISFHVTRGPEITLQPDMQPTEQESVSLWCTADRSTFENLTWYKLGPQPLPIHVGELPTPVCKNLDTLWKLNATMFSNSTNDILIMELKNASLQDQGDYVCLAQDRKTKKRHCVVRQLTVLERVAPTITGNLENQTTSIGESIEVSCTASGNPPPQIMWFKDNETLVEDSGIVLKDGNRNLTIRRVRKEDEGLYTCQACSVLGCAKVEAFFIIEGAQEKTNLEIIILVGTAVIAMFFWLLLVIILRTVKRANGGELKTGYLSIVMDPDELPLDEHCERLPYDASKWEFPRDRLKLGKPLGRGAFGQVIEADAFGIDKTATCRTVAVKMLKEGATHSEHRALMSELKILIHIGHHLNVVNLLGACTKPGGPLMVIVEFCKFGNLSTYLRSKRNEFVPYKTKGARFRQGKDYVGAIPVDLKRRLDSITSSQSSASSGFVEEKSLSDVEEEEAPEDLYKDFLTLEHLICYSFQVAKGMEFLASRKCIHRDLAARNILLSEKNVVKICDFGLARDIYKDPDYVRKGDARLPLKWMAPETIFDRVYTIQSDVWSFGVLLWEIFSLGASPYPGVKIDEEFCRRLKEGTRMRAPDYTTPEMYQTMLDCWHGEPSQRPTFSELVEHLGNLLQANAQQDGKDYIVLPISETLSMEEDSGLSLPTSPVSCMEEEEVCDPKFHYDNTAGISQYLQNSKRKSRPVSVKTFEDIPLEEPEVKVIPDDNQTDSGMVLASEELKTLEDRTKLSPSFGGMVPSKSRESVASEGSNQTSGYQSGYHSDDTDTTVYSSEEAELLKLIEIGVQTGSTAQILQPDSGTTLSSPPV
Experimental: as §1, §2, §3, §4

1AS cells = assay: Growth of subcutaneous 1AS carcinomas in BDX rats; type: in vivo, rat; conditions: 1AS cells s.c., 4-5 mg/kg each day in DMSO, FIG. 7
Experimental: 1AS cells (5×10^5) were injected subcutaneously into 2 groups of BDX rats (8 rats per group). One group was subsequently injected with 100 μl of DMSO/animal per day up to the end of the experiment. The other group was injected with 100 μl of MAZ51 (10 mg/ml in DMSO)/animal, equivalent to 4-5 mg/kg, each day. The tumor volume was measured normally measured regularly after the injection of the tumor cells.
FIG. 7: Depiction of the tumor volume as a function of the number of days after tumor cell injection depending on the treatment of the 1AS tumor cells with MAZ51.

[1] = tested on: MT450 rat mammary carcinoma cells; assay: Growth of subcutaneous MT450 mammary carcinomas in Wistar Furth rats; type: in vivo; conditions: MT450 cells s.c., 8 mg/kg/day intraperitoneally in DMSO, FIG. 8
Experimental: MT450 rat mammary carcinoma cells were injected subcutaneously into Wistar Furth rats. Treatment with the active substance MAZ51 at 8 mg/kg/day in 100% DMSO or solvent control (100% DMSO) was started the day after injection of the tumor cells. MAZ51 or only solvent was injected intraperitoneally each day. Each test group comprised 8 animals. The tumors were measured every 4-5 days.
FIG. 8: Depiction of the tumor volume as a function of the number of days after tumor cell injection depending on treatment of the MT450 tumor cells with MAZ51 and a DMSO solution (negative control).

Sequence of ErbB2 (P04626 23-1255): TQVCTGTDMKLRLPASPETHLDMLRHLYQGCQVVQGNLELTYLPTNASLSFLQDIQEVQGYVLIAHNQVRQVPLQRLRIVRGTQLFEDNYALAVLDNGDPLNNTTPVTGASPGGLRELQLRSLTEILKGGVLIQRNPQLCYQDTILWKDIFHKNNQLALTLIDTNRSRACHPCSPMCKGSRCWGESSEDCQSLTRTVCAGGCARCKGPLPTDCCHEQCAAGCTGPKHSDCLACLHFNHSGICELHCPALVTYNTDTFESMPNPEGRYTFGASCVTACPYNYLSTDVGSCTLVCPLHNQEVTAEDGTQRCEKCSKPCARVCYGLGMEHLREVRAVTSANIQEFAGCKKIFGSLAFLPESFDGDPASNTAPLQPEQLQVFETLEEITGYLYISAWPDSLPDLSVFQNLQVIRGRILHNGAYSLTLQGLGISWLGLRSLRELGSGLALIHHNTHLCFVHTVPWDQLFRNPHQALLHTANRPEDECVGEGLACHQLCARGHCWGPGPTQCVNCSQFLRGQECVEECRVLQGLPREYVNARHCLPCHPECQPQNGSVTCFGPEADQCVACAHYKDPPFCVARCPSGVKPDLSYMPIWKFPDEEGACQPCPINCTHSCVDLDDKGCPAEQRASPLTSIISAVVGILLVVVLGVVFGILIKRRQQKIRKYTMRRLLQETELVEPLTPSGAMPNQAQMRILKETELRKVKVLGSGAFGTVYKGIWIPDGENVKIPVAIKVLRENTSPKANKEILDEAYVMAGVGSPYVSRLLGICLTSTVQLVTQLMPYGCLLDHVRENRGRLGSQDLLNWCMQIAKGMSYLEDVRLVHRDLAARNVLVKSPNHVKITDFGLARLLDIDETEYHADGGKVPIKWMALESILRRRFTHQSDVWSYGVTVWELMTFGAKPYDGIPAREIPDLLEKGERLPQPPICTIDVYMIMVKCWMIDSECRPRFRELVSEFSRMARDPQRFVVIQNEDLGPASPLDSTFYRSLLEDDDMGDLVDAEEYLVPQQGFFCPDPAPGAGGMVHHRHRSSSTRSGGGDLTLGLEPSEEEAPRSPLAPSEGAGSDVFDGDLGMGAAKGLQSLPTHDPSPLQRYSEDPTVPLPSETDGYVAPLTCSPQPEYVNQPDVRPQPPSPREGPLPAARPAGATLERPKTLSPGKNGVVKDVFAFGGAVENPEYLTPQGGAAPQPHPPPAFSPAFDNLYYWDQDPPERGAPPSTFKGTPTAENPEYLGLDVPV

inhibition at 1 µg/mL (ErbB2) [%] | inhibition at 10 µg/mL (ErbB2) [%] | inhibition at 1 µg/mL (FGFR1) [%] | inhibition at 10 µg/mL (FGFR1) [%] | inhibition at 1 µg/mL (Tie2) [%] | inhibition at 10 µg/mL (Tie2) [%] | inhibition at 1 µg/mL (VEGFR-2) [%] | inhibition at 10 µg/mL (VEGFR-2) [%] | SMILES | inhibition of tumor growth (tumor volume) (1AS cells) | inhibition of tumor growth (tumor volume) [1]
-4 | 41 | -5 | 1 | 5 | 28 | -21 | 58 | COc1ccc(C=C2C(=O)Nc3ccccc32)cc1F [MAE106, 3-(3-Fluoro-4-methoxybenzylidene)-1,3-dihydroindole-2-one] | – | –
45 | 84 | 50 | 94 | -1 | 65 | 46 | 77 | O=C1Nc2ccccc2C1=Cc1ccc(O)cc1O [MAE87, 3-(2,4-Dihydroxybenzylidene)-1,3-dihydroindol-2-one] | – | –
11 | 39 | -1 | 5 | 7 | 27 | 8 | 74 | CN(C)c1ccc(C=C2C(=O)Nc3ccccc32)c2ccccc12 [MAZ51, 3-(4-Dimethylaminonaphthalen-1-ylmethylene)-1,3-dihydroindol-2-one] | considerably inhibited | inhibited in vivo
